Series [1] concerns P. falciparum K1. The series can be described thus: In vitro activity against erythrocytic stages of P. falciparum, 3H-hypoxanthine incorporation assay. Format: cell-based. The conditions noted are these: Plasmodium falciparum. As to the method:
(§1) VI. Design and Results of the in vitro & in vivo Studies.
A. Drug inhibition of in vitro cultured P. falciparum parasite:[2] All in vitro assays were carried out twice independently in duplicate.In vitro activity against theerythrocytic stages of P. falciparum was determined by using a 3H-hypoxanthine incorporation assay, using the chloroquine and pyrimethamine resistant K1 strain and the standard drugs chloroquine (Sigma C6628) and artemisinin (Arteannuin, Qinghaosu; Sigma 36,159- 3). Compounds were dissolved in DMSO at 10 mg/mL and added to parasite cultures incubated in RPMI 1640 medium without hypoxanthine, supplemented with HEPES (5.94 g/L), NaHCO3 (2.1 g/L), neomycin (100U/mL), AlbumaxR (5 g/L), and washed human red cells A+ at 2.5% haematocrit (0.3% parasitaemia). Serial doubling dilutions of each drug were prepared in 96-well microtiter plates and incubated in a humidified atmosphere at 37 °C; 4% CO 2, 3% O2, 93% N2. After 48 h, 50 µLof 3H-hypoxanthine (= 0.5 µCi) was added to each well of the plate. The plates were incubated for an additional 24 h under the same conditions. The plates were then harvested with a Betaplate cell harvester (Wallac, Zurich, Switzerland), and the red blood cells were transferred onto a glass fiber filter and then washed with distilled water. The dried filters were inserted into a plastic foil with 10 mL of scintillation fluid and were counted in a Betaplate™ liquid scintillation counter (Wallac, Zurich, Switzerland); IC50values were calculated from sigmoidal inhibition curves using Microsoft Excel. […]

The test system of series [2] is P. berghei ANKA GFP. The series can be described thus: In vivo antimalarial efficacy, P. berghei mouse model (4 days treatment). Set-up: species or system Plasmodium berghei. The conditions noted are these: 10 mg/kg/day × 4, ip, NMRI mice. Here is the method:
C. In vivo antimalarial efficacy studies (4 days treatment).[2]
In vivo antimalarial activity was assessed basically as previously described. Groups of three female […]
GFP-transfected P. berghei strain ANKA. .Unless otherwise indicated compounds were formulated in 100% DMSO, diluted 10-fold in distilled water and administered intraperitoneally in a volume of 10 mL kg-1 on four consecutive days (4, 24, 48 and 72 h post infection). Parasitemia was determined on day 4 post infection (24 h after last treatment) by FACS analysis. Activity was calculated as the difference between the mean per cent parasitaemia for the control (n=5 mice) and treated groups expressed as a per cent relative to the control group. The survival time in days was also recorded up to 30 days after infection. A compound was considered curative if the animal survived to day 30 after infection with no detectable parasites. In vivo efficacy studies in mice were conducted at the Swiss Tropical and Public Health Institute (Basel) according to the rules and regulations for the protection of animal rights ("Tierschutzverordnung") of the Swiss "BundesamtfürVeterinärwesen". They were approved by the veterinary office of Canton Basel-

Series [3] can be described thus: In vitro cytotoxicity assay in L-6 cells (Alamar Blue). The conditions noted are these: rat, L-6 cells (rat skeletal myoblasts). Here is the method:
as §1
A. Drug inhibition of in vitro cultured P. falciparum parasite:[2] […]
B. In vitro cytotoxicity assay: [2] Assays were performed in 96-well microtiter plates, each well containing 100 µl of RPMI 1640 medium supplemented with 1% L-glutamine (200mM) and 10% fetal bovine serum, and 4 x 10^4 L-6 cells (a primary cell line derived from rat skeletal myoblasts).
Serial drug dilutions of seven 3-fold dilution steps covering a range from 90 to 0.123 µg/mL were prepared. After 72 h of incubation the plates were inspected under an inverted microscope to assure growth of the controls and sterile conditions. 10µL of Alamar Blue was then added to each well and the plates incubated for another 2 h. Then the plates were read with a Spectramax Gemini XS microplatefluorometer (Molecular Devices Cooperation, Sunnyvale, CA, USA) using an excitation wave length of 536 nm and an emission wave length of 588 nm. Data were analysed using the microplate reader software Softmax Pro (Molecular Devices Cooperation, Sunnyvale, CA, USA).
For orientation: Resazurin is reduced to fluorescent resorufin, in cell work by metabolically active cells.

Series [4] can be described thus: Chromatographic LogD estimation (gLogD). The series is classed as physicochemical. Particulars: chromatographic gLogD technique, pH 7.4. As to the method:
(§2) IV. Physicochemical Evaluation […]
Chromatographic Log D Estimation: The partition coefficient (gLogDpH 7.4) of 20 was estimated by correlation of its chromatographic retention properties with the retention characteristics of a series of standard compounds with known partition coefficient values. Data were collected using a Waters 2785 HPLC with a Waters 2487 dual channel UV detector with a Phenomenex Synergi Hydro-RP 4 µm (30 mm x 2 mm) column. The mobile phase was aqueous buffer (50 mM ammonium acetate, pH 7.4) and acetonitrile with an acetonitrile gradient of 0-100% over 10 min. Compound elution was monitored at 220 and 254 nm. […]

A short description of series [5]: Aqueous solubility estimation by nephelometry. Particulars: 1% DMSO. Format: physicochemical. As to the method:
as §2
Solubility Estimation: Aqueous solubility was estimated by nephelometry. A concentrated
stock solution prepared in DMSO was spiked into either pH 6.5 phosphate buffer or 0.01 N HCl
(approx. pH 2.0) with the final DMSO concentration being 1%. Samples were then analyzed by
Nephelometry to determine the solubility range as described previously.[9] […]

A short description of series [6]: Metabolic stability, NADPH-dependent degradation in human liver microsomes. The series is classed as in vitro ADME. As to the method: (§3) Compound 20 (1 µM) was incubated at 37 ° C with human or mouse liver microsomes (BD Gentest, Discovery Labware Inc., Woburn, MA). The reaction was initiated by the addition of an NADPH-regenerating system containing 1 mg/mL NADP, 1 mg/mL glucose-6-phosphate, 1 U/mL glucose-6-phosphate dehydrogenase, and 0.67 mg/mL MgCl2and quenched at various time points over the incubation period (60 min) by the addition of ice cold acetonitrile. Samples were also incubated in the absence of co-factor to monitor for non-specific degradation. The relative loss of parent compound and formation of metabolic products were monitored by LC/MS using a Waters/Micromass LCT instrument.
(§4) Compound concentration versus time data were fitted to an exponential decay function to determine the first-order rate constant for substrate depletion which was used to obtain the in vitro intrinsic clearance (in vitro CLint), and then scaled to predict the human intrinsic clearance (scaling parameters included liver mass of 25.7 g liver/kg body weight for human and 87.5 g liver/kg body weight for mouse and microsomal protein content of 45 mg microsomal protein/g liver mass for […]
(§5) both species)[10]. […]
On the technique in general: Liver microsomes are vesicles of endoplasmic reticulum, rich in cytochrome P450 enzymes.

Series [7] can be described thus: Metabolic stability, NADPH-dependent degradation in mouse liver microsomes. Format: in vitro ADME. Here is the method: as §3, §4, §5

Values after ≈ are worked out from the molar mass of the structure shown. Read-outs that look alike come from different tables or passages of the source.

In the case of `CCN(CC)CCCC(C)Nc1ccnc2cc(Cl)ccc12` (stereo not shown) [chloroquine], the half-maximal effective concentration (EC50) – broadly, the concentration giving half of the maximal effect – in series [1] (K1, read-out: EC50, control for P. falciparum K1) amounted to 0.1 mg/L. Further, the “% Reduction parasitaemia P. berghei ANKA GFP” value in series [2] turned out to be 99.97%. In series [2] (control 7 days), the “Survival” value came out at 20 days.
For the compound `Cc1cc(/C=C2\S/C(=N\c3ccccc3)N(C3CCCCC3)C2=O)c(C)n1-c1ccc(F)cc1` [Compound 20, (2Z, 5Z)-3-Cyclohexyl-5-((1-(4-fluorophenyl)-2,5-dimethyl-1H-pyrrol-3-yl)methylene)-2-(phenylimino)thiazolidin-4-one], the EC50 in series [1] (K1 strain (chloroquine and pyrimethamine resistant), means of two independent assays, read-out: P. falc. EC50) is 2 µM. For the same compound, the half-maximal effective concentration (EC50) at 72 h in series [3] was more than 190 µM. Further, the chromatographic logD (usually lipophilicity estimated from chromatographic retention) in series [4] was 7.1. For the same compound, the “Solubility pH 2.0” value in series [5] (pH 2.0 (0.01 N HCl)) is on record as “poor aqueous solubility”. The solubility (commonly how much of the substance goes into solution per volume) in series [5] (pH 2.0 (0.01 N HCl), read-out: Solubility pH 2.0) is less than 0.8 µg/mL; in series [5] (pH 6.5 phosphate buffer, read-out: Solubility pH 6.5), 0.8 to 1.6 µg/mL (≈ 1.69 to 3.38 µM). In addition, the “Solubility pH 6.5” value in series [5] (pH 6.5 phosphate buffer) was “poor aqueous solubility”. For the same compound, the Metabolites detected entry in series [6] (human liver microsomes, LC/MS) was “no obvious metabolites were detected and None”; in series [7] (mouse liver microsomes, LC/MS) it was “no obvious metabolites were detected and None”. In addition, the “Microsome predicted hepatic extraction ratio EH” value in series [6] (human, well-stirred model) is listed as 0.67; in series [7] (mouse, well-stirred model), 0.71. Besides, the NADPH-dependent degradation result in series [6] (incubation with human liver microsomes) and in series [7] (incubation with mouse liver microsomes) was “rapid NADPH-dependent degradation” in each case. In addition, the CLint scaled at 1 µM in series [6] (liver microsomes, human, scaled from in vitro CLint, read-out: Microsome predicted in vivo CLint) was 2.52 L/h/kg; in series [7] (liver microsomes, mouse, scaled from in vitro CLint, read-out: Microsome predicted in vivo CLint), 13 L/h/kg. In addition, in series [7] (mouse liver microsomes, 1 µM, 37 °C, NADPH), the “In vitro CLint” value amounted to 0.055 ml/min/mg Protein.

(Values after PMC4607724, “Discovery and optimisation studies of antimalarial phenotypic hits” (European Journal of Medicinal Chemistry, 2015).)
